Experimental data: PMC11649909 (Nature Communications, 2024)
Changes are numbered by the printed parent chain.

Columns and labels:
Assay in all cases: SPR
Type in all cases: binding
[1] = molecular target: T1, ADIPOR2 (adiponectin receptor 2) (Homo sapiens, UniProt Q86V24)
T1 sequence (Q86V24 1-386): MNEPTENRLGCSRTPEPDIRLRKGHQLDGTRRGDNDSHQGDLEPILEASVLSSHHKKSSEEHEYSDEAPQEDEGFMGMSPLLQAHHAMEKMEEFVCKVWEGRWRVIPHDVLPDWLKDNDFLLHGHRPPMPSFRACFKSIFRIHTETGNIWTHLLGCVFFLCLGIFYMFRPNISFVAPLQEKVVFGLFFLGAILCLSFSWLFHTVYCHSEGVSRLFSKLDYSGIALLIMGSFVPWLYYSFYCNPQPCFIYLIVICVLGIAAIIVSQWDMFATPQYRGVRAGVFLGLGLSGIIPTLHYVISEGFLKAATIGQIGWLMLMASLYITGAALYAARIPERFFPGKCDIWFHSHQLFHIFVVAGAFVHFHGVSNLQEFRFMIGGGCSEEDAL

ADIPOR2 R331A = molecular target: T2, ADIPOR2 R331A (Homo sapiens, UniProt Q86V24, R331A)
T2 sequence (Q86V24 1-386 R331A): T1 sequence (Q86V24 1-386) with R331A

ADIPOR2 R335A = molecular target: T3, ADIPOR2 R335A (Homo sapiens, UniProt Q86V24, R335A)
T3 sequence (Q86V24 1-386 R335A): T1 sequence (Q86V24 1-386) with R335A

Structure (SMILES): COc1cc(C(=O)OCCCCNC(=N)N)cc(OC)c1O [SCM-198]
- Kd [1]: 1.99 µM
- Kd (ADIPOR2 R331A): 9.92 µM
- Kd (ADIPOR2 R335A): 50.1 µM
